Measurements taken from PMC10117764, “The roles of serine hydrolases and serum albumin in alisol B 23-acetate hydrolysis in humans” (Frontiers in Pharmacology, 2023).
Where “and” joins values, the source holds several entries; their conditions need not be identical. Equal entries are not always repeated.

Key:
[1] = Hydrolytic half-life of AB23A in mouse liver microsomes; format: in vitro ADME; conditions: mouse liver microsomes (MLMs), pH 7.4, MLMs 0.10 mg/mL, read-out: T1/2 (hydrolytic half-life)
[2] = target: T1, hBchE (Homo sapiens, UniProt P06276); test: Kinetic analysis of AB23A hydrolysis in hBchE; format: in vitro ADME; conditions: 1 h incubation
T1 construct: purchased Sigma-Aldrich Lot SLCG5158
T1 sequence (P06276 29-602): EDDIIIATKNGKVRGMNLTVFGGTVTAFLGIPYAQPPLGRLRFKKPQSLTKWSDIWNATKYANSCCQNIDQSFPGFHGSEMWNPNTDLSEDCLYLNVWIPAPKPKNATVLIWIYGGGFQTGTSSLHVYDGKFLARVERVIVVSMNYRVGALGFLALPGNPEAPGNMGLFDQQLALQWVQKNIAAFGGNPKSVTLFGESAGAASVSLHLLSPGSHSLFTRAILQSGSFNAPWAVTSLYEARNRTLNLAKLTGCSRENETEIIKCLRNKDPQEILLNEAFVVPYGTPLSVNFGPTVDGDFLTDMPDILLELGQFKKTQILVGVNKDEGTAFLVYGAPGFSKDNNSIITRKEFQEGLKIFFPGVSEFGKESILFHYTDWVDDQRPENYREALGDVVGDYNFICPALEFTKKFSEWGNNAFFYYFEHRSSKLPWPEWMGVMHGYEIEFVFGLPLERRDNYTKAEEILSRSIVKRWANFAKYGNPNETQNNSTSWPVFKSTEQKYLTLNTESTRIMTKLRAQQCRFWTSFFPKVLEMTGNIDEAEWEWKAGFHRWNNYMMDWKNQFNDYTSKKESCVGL
Procedure: (§1) The enzymatic kinetics of AB23A hydrolysis in different tissue preparations (HLMs, HIMs, human plasma) and human recombinant enzymes (hCES1A, hCES2A, hSA, hBchE) were analyzed. The incubation system (200 μL) consisted of PBS, each tested enzyme, and AB23A (ranging from 0 to 1,000 μM). After incubating for 1 h, the supernatants were then used for LC-UV analysis. The kinetic parameters of AB23A hydrolysis were fitted by the following Michaelis−Menten Eq. 1 ([Zhang et al., 2022]). V=(Vmax×[S])⁄(Km+[S]) (1) Here, K m is the Michaelis constant of AB23A hydrolysis, V max is the maximum velocity of AB23A hydrolysis, V max /K m is used to calculate the intrinsic clearance (CL int ).

[3] = target: T2, hSA (Homo sapiens, UniProt P02768); test: Kinetic analysis of AB23A hydrolysis in hSA; format: in vitro ADME; conditions: 1 h incubation
T2 construct: purchased Sigma-Aldrich Lot#SLCC9268
T2 sequence (P02768 25-609): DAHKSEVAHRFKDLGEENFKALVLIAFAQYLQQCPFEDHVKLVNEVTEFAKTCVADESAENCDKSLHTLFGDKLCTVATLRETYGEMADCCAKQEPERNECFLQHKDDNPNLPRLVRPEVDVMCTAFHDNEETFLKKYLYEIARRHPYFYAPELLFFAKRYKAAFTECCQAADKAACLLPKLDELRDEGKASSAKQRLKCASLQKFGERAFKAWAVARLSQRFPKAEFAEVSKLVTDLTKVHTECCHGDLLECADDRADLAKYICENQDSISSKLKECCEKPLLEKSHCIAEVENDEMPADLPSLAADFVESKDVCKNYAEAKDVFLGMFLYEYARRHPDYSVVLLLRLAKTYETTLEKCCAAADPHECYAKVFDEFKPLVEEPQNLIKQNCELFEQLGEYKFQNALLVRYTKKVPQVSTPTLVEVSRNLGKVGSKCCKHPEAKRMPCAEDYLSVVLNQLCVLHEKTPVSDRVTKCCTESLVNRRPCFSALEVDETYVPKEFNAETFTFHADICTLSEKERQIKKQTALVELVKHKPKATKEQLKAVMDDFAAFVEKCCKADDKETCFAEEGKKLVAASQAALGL
Procedure: as §1

[4] = Kinetic analysis of AB23A hydrolysis in HIMs; format: in vitro ADME, human
Procedure: as §1

[5] = target: T2, hSA; test: Identification of the modification sites of hSA by AB23A (LC-MS/MS of tryptic peptides); conditions: hSA 1 mg/mL, AB23A 50 μM, 37°C; following co-incubation
Procedure: […] The soluble impurities and unbound molecules were washed by ultrapure water (200 μL) ([Nel et al., 2015]). After denaturation for 1 h in 8 M urea solution at 37°C, the mixture was alkylated with dithiothreitol and iodoacetamide in the dark, washed twice with 200 μL ultrapure water, and finally washed with 200 μL 50 mM ammonium bicarbonate. The samples were digested overnight with 2 μL trypsin in 50 mM ammonium bicarbonate solution at an enzyme-to-substrate ratio of 1:50 (w/w). The trypsin digest was collected and washed with 50 μL NaCl solution (500 mM). The peptides were desalted by the MonoSpin C18 (GL Sciences). Subsequently, the eluents were dried by the vacuum pump and resolved in 40 μL 0.1% formic acid for analyses (please refer to the Supplementary Material for more details).

[6] = target: T1, hBchE; test: Reaction phenotyping assay of AB23A hydrolysis, hBchE; format: in vitro ADME; conditions: hBchE 5 μg/mL, AB23A 20 μM, 60 min, pH 7.4 at 37°C
Procedure: (§2) The hydrolytic rates of AB23A in different human recombinant enzymes (hCES1A, hCES2A, hPL, hIAH1, hNotum, hAchE, hBchE, hSA, hCTSA, hMAGL) were assayed. The incubation system included PBS, each tested enzyme (5 μg/mL, final concentration), and AB23A (20 μM). After incubation for 1 h at 37°C, ice-cold acetonitrile was added to terminate the reaction and precipitate proteins. The supernatants by centrifuging were used to quantify the formation rates of AB by LC-UV analysis. The detection wavelength of AB was 196 nm.

[7] = target: T2, hSA; test: Reaction phenotyping assay of AB23A hydrolysis, hSA; format: in vitro ADME; conditions: hSA 500 μg/mL (Figure 3), AB23A 20 μM, 60 min, pH 7.4 at 37°C
Procedure: as §2, with “The incubation system included PBS, each tested enzyme (5 μg/mL, final concentration), and AB23A (20 μM).” left out

[8] = target: T3, hCES2A (Homo sapiens, UniProt O00748); test: Reaction phenotyping assay of AB23A hydrolysis, hCES2A; format: in vitro ADME; conditions: hCES2A 5 μg/mL, AB23A 20 μM, 60 min, pH 7.4 at 37°C
T3 construct: 10xHis; made in house; host or cells: HEK293-F cells, pTT5 vector, purified from conditioned medium
T3 sequence (O00748 27-559): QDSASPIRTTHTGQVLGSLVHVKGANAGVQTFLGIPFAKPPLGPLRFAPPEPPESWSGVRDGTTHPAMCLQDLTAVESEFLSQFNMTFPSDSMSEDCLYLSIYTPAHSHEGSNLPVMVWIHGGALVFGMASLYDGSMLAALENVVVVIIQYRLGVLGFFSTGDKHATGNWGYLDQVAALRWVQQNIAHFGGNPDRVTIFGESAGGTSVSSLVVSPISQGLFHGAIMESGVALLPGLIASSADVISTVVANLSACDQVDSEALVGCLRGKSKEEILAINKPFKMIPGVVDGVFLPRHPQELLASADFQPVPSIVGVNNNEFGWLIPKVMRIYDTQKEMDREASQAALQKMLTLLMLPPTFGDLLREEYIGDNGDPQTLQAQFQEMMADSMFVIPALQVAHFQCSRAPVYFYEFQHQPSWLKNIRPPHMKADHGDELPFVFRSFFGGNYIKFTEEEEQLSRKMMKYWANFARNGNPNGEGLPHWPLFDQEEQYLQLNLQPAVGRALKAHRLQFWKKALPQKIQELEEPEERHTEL
Procedure: as §2

[9] = target: T4, hCES1A (Homo sapiens, UniProt P23141); test: Reaction phenotyping assay of AB23A hydrolysis, hCES1A; format: in vitro ADME; conditions: hCES1A 5 μg/mL, AB23A 20 μM, 60 min, pH 7.4 at 37°C
T4 construct: 10xHis; made in house; host or cells: HEK293-F cells, pTT5 vector, purified from conditioned medium
T4 sequence (P23141 18-563): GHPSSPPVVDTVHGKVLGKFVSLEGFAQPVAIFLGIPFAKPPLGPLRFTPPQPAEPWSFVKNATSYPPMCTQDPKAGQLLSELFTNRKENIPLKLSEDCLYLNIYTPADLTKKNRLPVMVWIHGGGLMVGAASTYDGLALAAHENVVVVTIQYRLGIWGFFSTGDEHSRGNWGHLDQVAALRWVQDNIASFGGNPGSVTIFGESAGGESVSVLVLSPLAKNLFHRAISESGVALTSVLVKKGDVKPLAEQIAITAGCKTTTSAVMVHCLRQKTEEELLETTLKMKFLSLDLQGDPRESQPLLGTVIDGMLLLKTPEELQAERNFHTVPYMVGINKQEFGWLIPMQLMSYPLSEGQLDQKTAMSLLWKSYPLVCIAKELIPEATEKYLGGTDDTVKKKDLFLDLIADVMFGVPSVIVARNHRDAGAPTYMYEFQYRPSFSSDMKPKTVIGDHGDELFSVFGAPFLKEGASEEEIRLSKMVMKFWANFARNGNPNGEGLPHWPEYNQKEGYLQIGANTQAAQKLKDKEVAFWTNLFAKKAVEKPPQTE
Procedure: as §2

CC(=O)O[C@H](C[C@@H](C)C1=C2C[C@H](O)C3[C@@]4(C)CCC(=O)C(C)(C)C4CC[C@]3(C)[C@@]2(C)CC1)[C@H]1OC1(C)C (stereo partly shown) [AB23A, Alisol B 23-acetate]
half-life [1]: 2.3 ± 0.01 min | K m of AB23A hydrolysis [2]: 35.78 ± 3.40 µM | K m of AB23A hydrolysis [3]: 261.20 ± 18.69 µM | K m of AB23A hydrolysis [4]: 164.00 ± 18.63 µM | V max of AB23A hydrolysis [4]: 2.93 ± 0.10 nmol/min/mg protein and 2.93 ± 0.10 ^a nmol/min/mg protein | Number of lysines in hSA acylated by AB23A [5]: 39 | Hydrolytic rate (formation of AB) in reaction phenotyping [6]: faster hydrolytic rate | Hydrolytic rate (formation of AB) in reaction phenotyping [7]: also catalyzed this hydrolytic reaction | Hydrolytic rate (formation of AB) in reaction phenotyping [8]: also catalyzed this hydrolytic reaction | Hydrolytic rate (formation of AB) in reaction phenotyping [9]: also catalyzed this hydrolytic reaction
